{"source": "paper PMC7561186", "about": "“Rational design of balanced dual-targeting antibiotics with limited resistance” (PLoS Biology, 2020)", "key": {"[1]": {"settings": "cited from earlier work"}, "[2]": {"biological_target": "T1, S. aureus topoisomerase IV (Staphylococcus aureus, UniProt P0C1S7)", "T1 construct": "purchased Inspiralis Ltd., Norwich, UK", "T1 sequence (P0C1S7 whole entry)": "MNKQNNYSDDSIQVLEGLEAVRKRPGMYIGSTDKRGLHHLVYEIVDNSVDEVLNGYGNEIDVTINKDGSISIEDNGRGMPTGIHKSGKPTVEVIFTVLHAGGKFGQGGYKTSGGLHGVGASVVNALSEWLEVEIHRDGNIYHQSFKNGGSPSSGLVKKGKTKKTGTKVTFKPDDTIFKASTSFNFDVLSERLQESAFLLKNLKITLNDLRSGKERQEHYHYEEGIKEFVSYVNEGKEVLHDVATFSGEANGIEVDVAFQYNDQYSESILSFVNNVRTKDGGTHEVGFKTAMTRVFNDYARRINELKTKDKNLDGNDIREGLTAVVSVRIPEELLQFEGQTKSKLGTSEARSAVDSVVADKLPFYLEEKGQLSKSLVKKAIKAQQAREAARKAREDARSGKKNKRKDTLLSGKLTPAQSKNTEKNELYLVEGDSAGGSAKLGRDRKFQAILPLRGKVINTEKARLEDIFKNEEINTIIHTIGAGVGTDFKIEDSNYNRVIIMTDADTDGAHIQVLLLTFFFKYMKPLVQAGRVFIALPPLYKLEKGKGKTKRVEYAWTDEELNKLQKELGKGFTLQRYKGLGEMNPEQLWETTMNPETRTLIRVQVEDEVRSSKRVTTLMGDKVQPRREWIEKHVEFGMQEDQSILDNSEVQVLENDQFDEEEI", "T1 sequence (P0C1U9 whole entry, further chain)": "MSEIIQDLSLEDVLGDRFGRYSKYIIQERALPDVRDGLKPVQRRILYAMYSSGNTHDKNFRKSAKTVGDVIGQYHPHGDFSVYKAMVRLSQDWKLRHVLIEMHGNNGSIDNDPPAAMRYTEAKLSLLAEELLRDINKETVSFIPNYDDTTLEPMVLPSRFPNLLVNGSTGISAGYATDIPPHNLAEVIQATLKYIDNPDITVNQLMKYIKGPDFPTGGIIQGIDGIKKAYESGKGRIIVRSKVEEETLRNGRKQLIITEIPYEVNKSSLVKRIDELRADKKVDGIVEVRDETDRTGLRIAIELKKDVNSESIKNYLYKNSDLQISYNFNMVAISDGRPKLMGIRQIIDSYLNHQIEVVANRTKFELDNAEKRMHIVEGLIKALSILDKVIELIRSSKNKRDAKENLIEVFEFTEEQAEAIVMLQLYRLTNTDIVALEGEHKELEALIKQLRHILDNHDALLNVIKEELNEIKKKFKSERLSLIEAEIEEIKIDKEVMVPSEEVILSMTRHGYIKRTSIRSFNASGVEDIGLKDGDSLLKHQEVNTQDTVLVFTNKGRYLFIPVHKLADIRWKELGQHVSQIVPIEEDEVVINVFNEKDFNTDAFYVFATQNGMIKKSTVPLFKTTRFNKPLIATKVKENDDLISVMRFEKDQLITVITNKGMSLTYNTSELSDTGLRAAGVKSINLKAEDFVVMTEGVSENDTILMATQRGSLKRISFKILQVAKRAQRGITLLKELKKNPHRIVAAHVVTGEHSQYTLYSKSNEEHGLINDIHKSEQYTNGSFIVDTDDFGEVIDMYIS", "test": "S. aureus topoisomerase IV gel-based assay", "assay_type": "biochemical", "settings": "quadruplicates"}, "[3]": {"test_system": "S. aureus ATCC 700699 VISA", "test": "Time-dependent killing", "assay_type": "cell-based", "settings": "for Time-kill bacterial count: 10xMIC; for Colony numbers: time-kill raw counts, Samples 1-3", "method": "Time-dependent killing experiments were performed as previously. S. aureus ATCC 700699 VISA cells were inoculated to MHBII agar plates and grown overnight at 37 °C. Next, 3 independent stationer-phase starter cultures were grown at 37 °C, 250 rpm overnight, in 3 × 1 mL MHBII broth. Next, 100-fold diluted cultures were prepared from each in 20 mL fresh MHBII medium and grown at 37 °C, 250 rpm until early exponential phase (OD600 = 0.3–0.4; i.e., 5 × 10^5 cells/mL). […] Cells were treated with antibiotics in Erlenmeyer flasks at 37 °C, 150 rpm for 48 hours. […] Next, 50 μL from each dilution were plated on MHBII agar plates, and plates were incubated overnight at 37 °C to calculate CFU per mL."}, "[4]": {"test_system": "S. aureus VISA ATCC 700699 GyrB / ParE mutants", "test": "MIC of spontaneous resistant mutants (single-step and second-step)", "assay_type": "cell-based", "settings": "Staphylococcus aureus", "method": "MICs were determined using a standard serial broth microdilution technique according to the CLSI guidelines. Briefly, bacterial strains were inoculated onto MHBII agar plates and were grown overnight at 37 °C. Next, 3 individual colonies from each strain were inoculated into 1 mL MHBII medium and propagated at 37 °C, 250 rpm overnight. In the cases of Enterococcus and Streptococcus sp., cells were plated to BHI agar plates, and BHI broth was used to determine MICs. […] Following dilutions, each well was seeded with 5×10^4 bacterial cells. All measurements were performed in 3 parallel replicates and to avoid possible edge effects in microwell plates, side rows (A and H) were filled with sterile medium. Following inoculations, plates were covered with lids and wrapped in polyethylene plastic bags to minimize evaporation but allow for O2 transfer. Plates were incubated at 37 °C under continuous shaking at 150 rpm for 18 hours. After incubation, OD600 of each well was measured using a BioTek Synergy 2 microplate reader."}, "[5]": {"test_system": "S. aureus ATCC 700699 (VISA)", "test": "microbe, parasite or virus in culture", "assay_type": "cell-based", "settings": "Staphylococcus aureus, read-out: MIC in adapted strains", "method": "Adaptive laboratory evolution experiments followed an established protocol for automated laboratory evolution and aimed to maximize the drug-resistance increment during a fixed time period. […] Experiments were conducted in 96-well plates, in MHBII medium, by utilizing a checkerboard layout to minimize and monitor cross-contamination. These 96-well deep-well plates (0.5 mL, polypropylene, V-bottom) were covered with sandwich covers (Enzyscreen BV) to ensure an optimal oxygen exchange rate and limit evaporation and were shaken at 150 rpm, 37 °C. […] Following cell transfer, each culture was allowed to grow for 48 hours. At each transfer, cell growth was monitored by measuring the OD600 in a BioTek Synergy 2 plate reader. […] Accordingly, only 1 of the 4 populations was retained for each independently evolving strain. This protocol was designed to avoid population extinction and to ensure that populations with the highest level of resistance are propagated further during adaptive evolution. […] Adaptation of populations was terminated after 20 transfers, i.e., 40 days. Following adaptation, cells from each final population were spread onto MHBII agar plates, and individual colonies were isolated. Next, one colony from each adapted line were subjected to capillary sequencing of gyrB and parE to assess their genotype."}, "[6]": {"biological_target": "Topoisomerase IV", "settings": "high-throughput relaxation assay ref 37; cited from earlier work"}}, "note": "Several values for one entry are separate records, joined by “and”; a condition that tells them apart may be missing. Equal values may be shown once. Read-outs that look alike come from different tables or passages of the source."}
{"smiles": "O=c1ccc2ncc(=O)n3c2n1C[C@H]3CN1CCC(NCc2cc3c(cn2)OCCC3)CC1", "note": "[Gepotidacin]", "values": [{"measurement": "increment in resistance level by combination of 2 specific target mutations", "setting": "[1]", "value": "2,000 fold"}, {"measurement": "resistance level (MIC) of double target mutant", "setting": "[1]", "value": 256, "unit": "µg/mL"}]}
{"smiles": "CO[C@@H]1[C@@H](OC(N)=O)[C@@H](O)[C@H](Oc2ccc3c(O)c(NC(=O)c4ccc(O)c(CC=C(C)C)c4)c(=O)oc3c2C)OC1(C)C", "note": "[Novobiocin]", "values": [{"measurement": "IC50", "setting": "[2]", "value": 2, "unit": "µM"}, {"measurement": "Time-kill bacterial count", "setting": "[3]; time 0 hour", "value": "2.80E+05"}, {"measurement": "Time-kill bacterial count", "setting": "[3]; time 3 hour", "value": "9.90E+04"}, {"measurement": "Time-kill bacterial count", "setting": "[3]; time 6 hour", "value": "4.70E+04"}, {"measurement": "Time-kill bacterial count", "setting": "[3]; time 12 hour", "value": "5.80E+03"}, {"measurement": "Time-kill bacterial count", "setting": "[3]; time 18 hour", "value": "1.50E+03"}, {"measurement": "Time-kill bacterial count", "setting": "[3]; time 24 hour", "value": "8.00E+02"}, {"measurement": "Time-kill bacterial count", "setting": "[3]; time 48 hour", "value": "6.40E+02"}, {"measurement": "Colony numbers", "setting": "[3]; time 0 h, Dilution 100", "value": "145 and 132 and 137"}, {"measurement": "Colony numbers", "setting": "[3]; time 3 h, Dilution 100", "value": "63 and 38 and 48"}, {"measurement": "Colony numbers", "setting": "[3]; time 6 h, Dilution 100", "value": "21 and 29"}, {"measurement": "Colony numbers", "setting": "[3]; time 12 h, Dilution 10", "value": "33 and 23 and 31"}, {"measurement": "Colony numbers", "setting": "[3]; time 18 h, Dilution 1", "value": "81 and 65 and 84"}, {"measurement": "MIC", "setting": "[4]; VISA GyrB I175T", "value": 0.032, "unit": "µg/mL"}, {"measurement": "MIC", "setting": "[4]; VISA GyrB R144G", "value": 4, "unit": "µg/mL"}, {"measurement": "MIC", "setting": "[4]; VISA GyrB R144I", "value": 8, "unit": "µg/mL"}, {"measurement": "MIC", "setting": "[4]; VISA wt, read-out: MIC", "value": 0.05, "unit": "µg/mL"}, {"measurement": "MIC", "setting": "[5]", "value": 16, "unit": "µg/mL"}]}
{"smiles": "O=C(O)C(=O)Nc1ccc2nc(NC(=O)c3cc(Br)c(Br)[nH]3)sc2c1", "note": "[ULD0]", "values": [{"measurement": "IC50", "setting": "[6]", "value": "10 ± 2", "unit": "µM"}]}
